pIC50: −log10 of the molar value.

In the first assay the target is T1, Human TRPC6 (Homo sapiens, UniProt Q9Y210).
T1 construct: expressed in transfected cells
T1 sequence (Q9Y210 1-931): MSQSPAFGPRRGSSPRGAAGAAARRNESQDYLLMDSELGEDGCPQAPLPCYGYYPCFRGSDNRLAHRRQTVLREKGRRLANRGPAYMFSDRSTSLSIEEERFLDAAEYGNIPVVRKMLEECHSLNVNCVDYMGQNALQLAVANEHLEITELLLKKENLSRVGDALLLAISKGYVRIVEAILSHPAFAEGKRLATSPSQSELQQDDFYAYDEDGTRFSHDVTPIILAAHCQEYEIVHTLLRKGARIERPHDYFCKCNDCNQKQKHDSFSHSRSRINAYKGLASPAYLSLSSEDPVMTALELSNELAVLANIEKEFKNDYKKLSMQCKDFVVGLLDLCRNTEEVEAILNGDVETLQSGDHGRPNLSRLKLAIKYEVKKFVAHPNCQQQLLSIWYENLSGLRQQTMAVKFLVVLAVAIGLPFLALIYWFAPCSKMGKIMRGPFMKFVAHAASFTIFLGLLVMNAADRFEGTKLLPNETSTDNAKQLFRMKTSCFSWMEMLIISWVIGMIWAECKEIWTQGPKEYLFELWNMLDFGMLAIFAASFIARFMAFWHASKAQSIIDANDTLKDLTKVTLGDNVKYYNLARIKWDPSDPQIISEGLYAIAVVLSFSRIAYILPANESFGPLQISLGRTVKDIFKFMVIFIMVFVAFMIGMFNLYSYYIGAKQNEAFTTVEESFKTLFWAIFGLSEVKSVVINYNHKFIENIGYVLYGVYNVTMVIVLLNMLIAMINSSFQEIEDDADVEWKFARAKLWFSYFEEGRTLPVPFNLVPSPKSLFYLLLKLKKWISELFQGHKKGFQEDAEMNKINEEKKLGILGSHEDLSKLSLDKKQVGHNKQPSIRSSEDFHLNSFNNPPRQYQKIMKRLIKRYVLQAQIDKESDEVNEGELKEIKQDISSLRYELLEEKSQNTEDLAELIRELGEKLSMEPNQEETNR
Kind of assay: Evaluation of TRPC6 channel inhibitory activity (1), FLIPR Calcium 5 Assay Kit, OAG stimulation (Compound Nos. 1-1293). Format: cell-based.
Conditions: not given
The method in brief: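 Stable human TRPC6 line; fluorescent Ca2+ dye loading, then 20 min compound exposure before 30 μM OAG trigger. Peak-minus-baseline signal converted to % inhibition against untreated and unstimulated wells; potency given as pIC50 band.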
On to `N#Cc1ccc(-c2ncc(CCN)cn2)c(Oc2ccc(N3C4CCC3CC4)nc2)c1` [compound 752, 4-[5-(2-aminoethyl)pyrimidin-2-yl]-3-[6-(7-azabicyclo[2.2.1]heptan-7-yl)pyridin-3-yl]oxybenzonitrile], for which the pIC50 (commonly the negative decadic logarithm of the IC50, by convention in mol/L) is 6.00 to 8.00.

The same assay, now with this note: Human TRPC6 stably-expressing cells, OAG 30 μM, FLIPR Calcium 5 Assay Kit; read-out: Inhibitory activity (pIC50 class) (converted).
Regarding `Cn1nc(N)cc1Oc1cc(C#N)ccc1-c1ccc([C@H](O)CN)cn1` [compound 576, 4-[5-[(1S)-2-amino-1-hydroxyethyl]pyridin-2-yl]-3-(5-amino-2-methylpyrazol-3-yl)oxybenzonitrile], the IC50 was over 1000 nM.
The same measure, in the same setting: the result for `CC(C)OCCN(C)c1cc(Oc2cc(C#N)ccc2-c2ncc(CCN)cn2)n(C)n1` [compound 863, 4-[5-(2-aminoethyl)pyrimidin-2-yl]-3-[2-methyl-5-[methyl(2-propan-2-yloxyethyl)amino]pyrazol-3-yl]oxybenzonitrile] reads over 1000 nM; that for `Cn1nc(-c2ccccn2)cc1Oc1cc(C#N)ccc1-c1ccc(CN)n2ccnc12` [compound 522, 4-[5-(aminomethyl)imidazo[1,2-a]pyridin-8-yl]-3-(2-methyl-5-pyridin-2-ylpyrazol-3-yl)oxybenzonitrile], under 10 nM; that for `Cc1cnc(-c2cc(Oc3cc(C#N)ccc3-c3ncc(CN)cn3)n(C)n2)s1` [compound 960, 4-[5-(aminomethyl)pyrimidin-2-yl]-3-[2-methyl-5-(5-methyl-1,3-thiazol-2-yl)pyrazol-3-yl]oxybenzonitrile], 10 to 1000 nM.
Same read-out and setting: then `Cc1nc(Oc2cc(C#N)ccc2-n2cc(C(O)CN(C)C)cn2)cc(-c2ccccc2)n1` (centres unmarked) [Compound 104, 4-[4-[2-(dimethylamino)-1-hydroxyethyl]pyrazol-1-yl]-3-(2-methyl-6-phenylpyrimidin-4-yl)oxybenzonitrile], with over 1000 nM; and `N#Cc1ccc(-c2ncc(CCN)cn2)c(Sc2cnnc(N3CCOCC3)c2)c1` [compound 1257, 4-[5-(2-aminoethyl)pyrimidin-2-yl]-3-(6-morpholin-4-ylpyridazin-4-yl)sulfanylbenzonitrile], with 10 to 1000 nM; and `Cc1c(Oc2cc(C#N)ccc2-c2ncc(CCN)cn2)cnn1CC(C)(C)C` [compound 938, 4-[5-(2-aminoethyl)pyrimidin-2-yl]-3-[1-(2,2-dimethylpropyl)-5-methylpyrazol-4-yl]oxybenzonitrile], with 10 to 1000 nM.
The same measure, in the same setting: the result for `N#Cc1ccc(-c2ncc(CN)cn2)c(Oc2cnnc(N3CCCCC3)c2)c1` [compound 715, 4-[5-(aminomethyl)pyrimidin-2-yl]-3-(6-piperidin-1-ylpyridazin-4-yl)oxybenzonitrile] reads under 10 nM; that for `Cc1nc(C(F)(F)F)cn1Cc1cc(C#N)ccc1-c1ncc(CN)cn1` [compound 1174, 4-[5-(aminomethyl)pyrimidin-2-yl]-3-[[2-methyl-4-(trifluoromethyl)imidazol-1-yl]methyl]benzonitrile], 10 to 1000 nM.
For `Cc1nc(OCC(F)F)cc(Oc2cc(C#N)ccc2-c2ncc(CN)cn2)n1` [compound 897, 4-[5-(aminomethyl)pyrimidin-2-yl]-3-[6-(2,2-difluoroethoxy)-2-methylpyrimidin-4-yl]oxybenzonitrile], the IC50 was over 1000 nM.
Still for that read-out and setting: then `N#Cc1ccc(-c2ccc(CCN)cc2)c(Oc2cnnc(-c3ccccc3C(N)=O)c2)c1` [Compound 94, 2-[5-[2-[4-(2-aminoethyl)phenyl]-5-cyanophenoxy]pyridazin-3-yl]benzamide], with over 1000 nM.
As to `Cn1nc(C2CC2)cc1Oc1cc(C#N)ccc1-c1ccc(C(N)C(=O)O)cn1` (centres unmarked) [compound 426, 2-amino-2-[6-[4-cyano-2-(5-cyclopropyl-2-methylpyrazol-3-yl)oxyphenyl]pyridin-3-yl]acetic acid], the IC50 is under 10 nM.
As for `CCc1cc(C(=O)c2cc(C#N)ccc2-c2ncc(CCN)cn2)n(C)n1` [compound 1025, 4-[5-(2-aminoethyl)pyrimidin-2-yl]-3-(5-ethyl-2-methylpyrazole-3-carbonyl)benzonitrile], the IC50 was under 10 nM.
For the compound `CC(C)Cn1cc(Cc2cc(F)ccc2-c2ncc(CCN)cn2)cn1` [compound 1222, 2-[2-[4-fluoro-2-[[1-(2-methylpropyl)pyrazol-4-yl]methyl]phenyl]pyrimidin-5-yl]ethanamine], the IC50 is 10 to 1000 nM.
With `N#Cc1ccc(-c2ncc(CCN)cn2)c(Oc2cnn(CC(F)(F)F)c2)c1` [compound 911, 4-[5-(2-aminoethyl)pyrimidin-2-yl]-3-[1-(2,2,2-trifluoroethyl)pyrazol-4-yl]oxybenzonitrile], the IC50 was 10 to 1000 nM.
Still for that read-out and setting: the result for `Cn1nc(-c2ccccc2)cc1Oc1cc(C#N)ccc1-c1ncc(CCN)cn1` [Compound 274, 4-[5-(2-aminoethyl)pyrimidin-2-yl]-3-(2-methyl-5-phenylpyrazol-3-yl)oxybenzonitrile] reads under 10 nM; that for `Cc1nc(OCC2(C)COC2)cc(Oc2cc(C#N)ccc2-c2ncc(CN)cn2)n1` [compound 894, 4-[5-(aminomethyl)pyrimidin-2-yl]-3-[2-methyl-6-[(3-methyloxetan-3-yl)methoxy]pyrimidin-4-yl]oxybenzonitrile], over 1000 nM.
On to `Cc1cc(Oc2cc(C#N)ccc2-c2ncc(CCN)cn2)cc(-c2ccccn2)n1` [compound 371, 4-[5-(2-aminoethyl)pyrimidin-2-yl]-3-(2-methyl-6-pyridin-2-ylpyridin-4-yl)oxybenzonitrile], for which the IC50 is under 10 nM.
Still for that read-out and setting: then `Cn1nc(C2CC2)cc1Oc1cc(C#N)ccc1-c1ncc(OCCN)cn1` [compound 385, 4-[5-(2-aminoethoxy)pyrimidin-2-yl]-3-(5-cyclopropyl-2-methylpyrazol-3-yl)oxybenzonitrile], with 10 to 1000 nM; and `Cn1nc(C2CC2)cc1Oc1cc(C#N)ccc1-c1ccc(CC(=O)N2CCNCC2)cn1` [compound 783, 3-(5-cyclopropyl-2-methylpyrazol-3-yl)oxy-4-[5-(2-oxo-2-piperazin-1-ylethyl)pyridin-2-yl]benzonitrile], with over 1000 nM; and `Cc1nc(OCC2CC2(F)F)cc(Oc2cc(C#N)ccc2-n2cc([C@@H](O)CN)cn2)n1` (stereo partly drawn) [Compound 271, 4-[4-[(1R)-2-amino-1-hydroxyethyl]pyrazol-1-yl]-3-[6-[(2,2-difluorocyclopropyl)methoxy]-2-methylpyrimidin-4-yl]oxybenzonitrile], with 10 to 1000 nM.
For `Cc1cc(Oc2cc(C#N)ccc2-c2ccc([C@H](O)CN)cn2)cc(N2CCCCC2)n1` [compound 500, 4-[5-[(1S)-2-amino-1-hydroxyethyl]pyridin-2-yl]-3-(2-methyl-6-piperidin-1-ylpyridin-4-yl)oxybenzonitrile], the IC50 was under 10 nM.
Same read-out and setting: then `Cn1nc(C2CC2)cc1Oc1cc(C#N)ccc1-c1ccc(CN)c(C(=O)O)n1` [compound 618, 3-(aminomethyl)-6-[4-cyano-2-(5-cyclopropyl-2-methylpyrazol-3-yl)oxyphenyl]pyridine-2-carboxylic acid], with 10 to 1000 nM; and `Cc1nc(Oc2cc(C#N)ccc2-c2ncc(CN)cn2)cc(N2CC(F)(F)C2)n1` [compound 653, 4-[5-(aminomethyl)pyrimidin-2-yl]-3-[6-(3,3-difluoroazetidin-1-yl)-2-methylpyrimidin-4-yl]oxybenzonitrile], with 10 to 1000 nM; and `Cc1ncc(-c2cc(Oc3cc(C#N)ccc3-c3ncc(CN)cn3)n(C)n2)s1` [compound 962, 4-[5-(aminomethyl)pyrimidin-2-yl]-3-[2-methyl-5-(2-methyl-1,3-thiazol-5-yl)pyrazol-3-yl]oxybenzonitrile], with 10 to 1000 nM.

Source of the values: patent US20230167073A1 (Teijin Pharma Limited, priority 2020, published 2023).
